# Literature values as cited in patent US6974588B1, “Transdermal patch for delivering volatile liquid drugs” (Elan Pharma International Limited, priority 1999, dated 2005).
# System: nicotine dependence
# Details: oral administration, literature report
structure (smiles),measurement,value
"CNC1(C)C2CCC(C2)C1(C)C (stereo not shown) [oral mecamylamine, mecamylamine]",ad hoc cigarette consumption,increased
